Experiments:
H1975 = assay: In vitro cell proliferation assay (MTT); assay type: cell-based; details: Homo sapiens, NCI-H1975, 72 h
Experimental: (§1) Cancer cell lines (5×10^3 cells per well) or HUVEC (1×10^4 cells per well) or HRMEC (1×10^4 cells per well) were distributed in 96-well plates and incubating in duplicate with escalating concentrations (10 nM to 3 μM) of compounds for 72 hr. Cell proliferation was measured using MTT (3 [4,5-dimethylthiazol-2-yl]-2,5-diphenyltetrazolium bromide).

A549 = assay: In vitro cell proliferation assay (MTT); assay type: cell-based; details: Homo sapiens, A549, 72 h
Experimental: as §1

BxPC-3 = assay: In vitro cell proliferation assay (MTT); assay type: cell-based; details: Homo sapiens, BXPC-3, 72 h
Experimental: as §1

HT29 = assay: In vitro cell proliferation assay (MTT); assay type: cell-based; details: Homo sapiens, HT-29, 72 h
Experimental: as §1

MDA-MB-231 = assay: In vitro cell proliferation assay (MTT); assay type: cell-based; details: Homo sapiens, MDA-MB-231, 72 h
Experimental: as §1

PC-3 = assay: In vitro cell proliferation assay (MTT); assay type: cell-based; details: Homo sapiens, PC-3, 72 h
Experimental: as §1

HepG2 = assay: In vitro cell proliferation assay (MTT); assay type: cell-based; details: Homo sapiens, HepG2, 72 h
Experimental: as §1

HUVEC = assay: In vitro cell proliferation assay (MTT); assay type: cell-based; details: Homo sapiens, 72 h
Experimental: as §1

ABL = target: T1, ABL (Homo sapiens, UniProt P00519); assay: In vitro kinase assay (Z′-LYTE); assay type: biochemical; details: read-out: % of inhibition of the kinase compared to the control
T1 construct: purchased Invitrogen
Experimental: (§2) The inhibitory activity of the compounds on several kinases including BRAF, EGFR (ErbB1), EGFR (ErbB1) T790M L858R, FGFR2, KDR (VEGFR2), PDGFRA (PDGFR alpha), SRC and other was evaluated by Invitrogen using the Z′-LYTE® technology. Briefly, the Z′-LYTE® biochemical assay employs a fluorescence-based, coupled-enzyme format and is based on the differential sensitivity of phosphorylated and non-phosphorylated peptides to proteolytic cleavage. The peptide substrate is labeled with two fluorophores—one at each end—that make up a FRET pair. A ratiometric method, which calculates the ratio (the Emission Ratio) of donor emission to acceptor emission after excitation of the donor fluorophore at 400 nm, is used to quantitate reaction progress.
(§3) The compounds are screened in 1% DMSO (final) in the well. For 10 point titrations, 3-fold serial dilutions are conducted from the starting concentration. All Peptide/Kinase Mixtures are diluted to a 2× working concentration in the appropriate Kinase Buffer. All ATP Solutions are diluted to a 4× working concentration in Kinase Buffer (50 mM HEPES pH 7.5, 0.01% BRIJ-35, 10 mM MgCl2, 1 mM EGTA). ATP Km apparent is previously determined using a Z′-LYTE® assay.
(§4) Each compound was incubated at a concentration of 100 nM (excepted to test the activity against ABL and ABL T315I for which the compounds were incubated at a concentration of 10 μM) and the tables B1 to B12 summarize the results obtained showing the inhibitory power of a compound. The inhibitory activity of OR0512 was also investigated using the same assays and the kinases for which activity was inhibited at more than 50% at the concentration of 100 nM of OR0512 are listed in the table B13.

PDGFRA (PDGFR alpha) = target: T2, PDGFRA (PDGFR alpha) (Homo sapiens, UniProt P16234); assay: In vitro kinase assay (Z′-LYTE); assay type: biochemical; details: read-out: % of inhibition of the kinase compared to the control
T2 construct: purchased Invitrogen
Experimental: as §2, §3, §4

FGFR1 = target: T3, FGFR1 (Homo sapiens, UniProt P11362); assay: In vitro kinase assay (Z′-LYTE); assay type: biochemical; details: read-out: % of inhibition of the kinase compared to the control
T3 construct: purchased Invitrogen
Experimental: as §2, §3, §4

ABL T315I = target: T4, ABL T315I (Homo sapiens, UniProt P00519, T315I); assay: In vitro kinase assay (Z′-LYTE); assay type: biochemical; details: read-out: % of inhibition of the kinase compared to the control
T4 construct: purchased Invitrogen
Experimental: as §2, §3, §4

SRC = target: T5, SRC (Homo sapiens, UniProt P12931); assay: In vitro kinase assay (Z′-LYTE); assay type: biochemical; details: read-out: % of inhibition of the kinase compared to the control
T5 construct: purchased Invitrogen
Experimental: as §2, §3, §4

BRAF = target: T6, BRAF (Homo sapiens, UniProt P15056); assay: In vitro kinase assay (Z′-LYTE); assay type: biochemical; details: compound 100 nM; ATP 100 μM; read-out: % of inhibition of the kinase compared to the control
T6 construct: purchased Invitrogen
Experimental: as §2, §3, §4

VEGFR1 = target: T7, VEGFR1 (Homo sapiens, UniProt P17948); assay: In vitro kinase assay (Z′-LYTE); assay type: biochemical; details: read-out: % of inhibition of the kinase compared to the control
T7 construct: purchased Invitrogen
Experimental: as §2, §3, §4

KDR (VEGFR2) = target: T8, KDR (VEGFR2) (Homo sapiens, UniProt P35968); assay: In vitro kinase assay (Z′-LYTE); assay type: biochemical; details: read-out: % of inhibition of the kinase compared to the control
T8 construct: purchased Invitrogen
Experimental: as §2, §3, §4

FGFR2 = target: T9, FGFR2 (Homo sapiens, UniProt P21802); assay: In vitro kinase assay (Z′-LYTE); assay type: biochemical; details: read-out: % of inhibition of the kinase compared to the control
T9 construct: purchased Invitrogen
Experimental: as §2, §3, §4

EGFR (ErbB1) = target: T10, EGFR (ErbB1) (Homo sapiens, UniProt P00533); assay: In vitro kinase assay (Z′-LYTE); assay type: biochemical; details: read-out: % of inhibition of the kinase compared to the control
T10 construct: purchased Invitrogen
Experimental: as §2, §3, §4

EGFR (ErbB1) T790M L858R = target: T11, EGFR (ErbB1) T790M L858R (Homo sapiens, UniProt P00533, L858R/T790M); assay: In vitro kinase assay (Z′-LYTE); assay type: biochemical; details: read-out: % of inhibition of the kinase compared to the control
T11 construct: purchased Invitrogen
Experimental: as §2, §3, §4

PDGFRB = target: T12, PDGFRB (Homo sapiens, UniProt P09619); assay: In vitro kinase assay (Z′-LYTE); assay type: biochemical; details: read-out: % of inhibition of the kinase compared to the control
T12 construct: purchased Invitrogen
Experimental: as §2, §3, §4

HeLa = assay: In vitro cell proliferation assay (MTT); assay type: cell-based; details: Homo sapiens, 72 h
Experimental: as §1

HuCCT1 = assay: In vitro cell proliferation assay (MTT); assay type: cell-based; details: Homo sapiens, HuCCT-1, 72 h
Experimental: as §1

T10 sequence (P00533 25-1210): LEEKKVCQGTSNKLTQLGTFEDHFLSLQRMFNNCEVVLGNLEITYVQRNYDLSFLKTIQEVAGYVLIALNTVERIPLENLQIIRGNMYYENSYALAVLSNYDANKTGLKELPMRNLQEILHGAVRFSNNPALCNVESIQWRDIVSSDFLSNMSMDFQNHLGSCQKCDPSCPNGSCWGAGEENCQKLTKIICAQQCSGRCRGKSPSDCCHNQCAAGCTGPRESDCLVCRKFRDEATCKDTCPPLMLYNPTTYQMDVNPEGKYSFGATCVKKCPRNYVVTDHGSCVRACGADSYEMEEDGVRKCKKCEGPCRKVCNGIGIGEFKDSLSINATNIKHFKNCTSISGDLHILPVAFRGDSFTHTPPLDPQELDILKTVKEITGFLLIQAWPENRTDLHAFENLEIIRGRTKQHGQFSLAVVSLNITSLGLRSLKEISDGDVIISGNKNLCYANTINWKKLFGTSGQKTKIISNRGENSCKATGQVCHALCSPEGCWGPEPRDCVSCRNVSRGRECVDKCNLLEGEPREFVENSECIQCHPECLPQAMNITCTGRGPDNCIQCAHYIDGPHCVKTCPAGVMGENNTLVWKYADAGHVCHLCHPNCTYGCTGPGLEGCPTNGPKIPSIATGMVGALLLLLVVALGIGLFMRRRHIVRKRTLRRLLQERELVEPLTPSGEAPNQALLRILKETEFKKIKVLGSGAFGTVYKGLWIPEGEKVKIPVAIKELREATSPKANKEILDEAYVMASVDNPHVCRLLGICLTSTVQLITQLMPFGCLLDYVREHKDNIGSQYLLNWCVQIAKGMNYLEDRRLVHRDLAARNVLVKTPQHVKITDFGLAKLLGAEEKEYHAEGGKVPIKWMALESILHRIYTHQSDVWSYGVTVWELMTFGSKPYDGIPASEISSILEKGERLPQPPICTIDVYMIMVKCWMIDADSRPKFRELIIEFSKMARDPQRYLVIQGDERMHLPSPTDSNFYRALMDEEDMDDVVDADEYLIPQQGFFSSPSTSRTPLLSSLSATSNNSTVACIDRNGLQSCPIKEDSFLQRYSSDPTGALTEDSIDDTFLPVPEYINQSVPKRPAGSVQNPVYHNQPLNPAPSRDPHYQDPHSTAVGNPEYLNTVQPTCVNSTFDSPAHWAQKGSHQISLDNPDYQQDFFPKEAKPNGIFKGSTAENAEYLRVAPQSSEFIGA
T7 sequence (P17948 27-1338): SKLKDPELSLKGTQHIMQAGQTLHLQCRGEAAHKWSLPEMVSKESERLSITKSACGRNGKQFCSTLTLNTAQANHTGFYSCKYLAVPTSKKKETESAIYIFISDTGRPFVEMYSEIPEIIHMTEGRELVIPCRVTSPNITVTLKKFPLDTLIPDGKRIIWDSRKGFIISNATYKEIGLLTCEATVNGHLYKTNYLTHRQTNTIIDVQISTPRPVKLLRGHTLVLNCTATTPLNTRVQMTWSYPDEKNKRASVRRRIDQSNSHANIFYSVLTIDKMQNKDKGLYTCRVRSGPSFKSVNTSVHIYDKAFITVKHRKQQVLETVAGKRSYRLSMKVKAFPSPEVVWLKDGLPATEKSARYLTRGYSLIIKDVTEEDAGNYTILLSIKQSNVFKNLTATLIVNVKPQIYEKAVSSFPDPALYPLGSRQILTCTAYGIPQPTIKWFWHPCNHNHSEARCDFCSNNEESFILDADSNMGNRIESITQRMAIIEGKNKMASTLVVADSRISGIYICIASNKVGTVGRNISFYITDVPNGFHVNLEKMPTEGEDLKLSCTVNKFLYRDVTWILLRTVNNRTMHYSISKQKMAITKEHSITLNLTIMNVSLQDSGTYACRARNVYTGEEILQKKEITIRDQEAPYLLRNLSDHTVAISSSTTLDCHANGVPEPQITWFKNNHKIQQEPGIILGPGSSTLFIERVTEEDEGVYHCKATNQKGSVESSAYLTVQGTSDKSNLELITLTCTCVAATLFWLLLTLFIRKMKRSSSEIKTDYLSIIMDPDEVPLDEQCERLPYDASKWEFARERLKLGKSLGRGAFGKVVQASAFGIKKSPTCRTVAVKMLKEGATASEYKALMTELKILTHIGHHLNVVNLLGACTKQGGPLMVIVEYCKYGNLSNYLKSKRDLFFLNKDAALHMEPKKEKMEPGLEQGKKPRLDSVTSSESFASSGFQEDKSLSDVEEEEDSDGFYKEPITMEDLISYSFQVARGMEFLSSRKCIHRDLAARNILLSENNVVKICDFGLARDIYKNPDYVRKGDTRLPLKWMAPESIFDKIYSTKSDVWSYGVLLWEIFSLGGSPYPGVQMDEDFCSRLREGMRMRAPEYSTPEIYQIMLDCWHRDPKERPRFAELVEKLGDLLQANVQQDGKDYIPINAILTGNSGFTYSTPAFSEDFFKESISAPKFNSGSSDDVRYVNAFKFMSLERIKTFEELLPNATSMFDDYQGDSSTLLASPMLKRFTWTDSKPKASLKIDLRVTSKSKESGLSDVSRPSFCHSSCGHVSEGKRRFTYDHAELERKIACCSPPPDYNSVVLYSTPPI
T2 sequence (P16234 24-1089): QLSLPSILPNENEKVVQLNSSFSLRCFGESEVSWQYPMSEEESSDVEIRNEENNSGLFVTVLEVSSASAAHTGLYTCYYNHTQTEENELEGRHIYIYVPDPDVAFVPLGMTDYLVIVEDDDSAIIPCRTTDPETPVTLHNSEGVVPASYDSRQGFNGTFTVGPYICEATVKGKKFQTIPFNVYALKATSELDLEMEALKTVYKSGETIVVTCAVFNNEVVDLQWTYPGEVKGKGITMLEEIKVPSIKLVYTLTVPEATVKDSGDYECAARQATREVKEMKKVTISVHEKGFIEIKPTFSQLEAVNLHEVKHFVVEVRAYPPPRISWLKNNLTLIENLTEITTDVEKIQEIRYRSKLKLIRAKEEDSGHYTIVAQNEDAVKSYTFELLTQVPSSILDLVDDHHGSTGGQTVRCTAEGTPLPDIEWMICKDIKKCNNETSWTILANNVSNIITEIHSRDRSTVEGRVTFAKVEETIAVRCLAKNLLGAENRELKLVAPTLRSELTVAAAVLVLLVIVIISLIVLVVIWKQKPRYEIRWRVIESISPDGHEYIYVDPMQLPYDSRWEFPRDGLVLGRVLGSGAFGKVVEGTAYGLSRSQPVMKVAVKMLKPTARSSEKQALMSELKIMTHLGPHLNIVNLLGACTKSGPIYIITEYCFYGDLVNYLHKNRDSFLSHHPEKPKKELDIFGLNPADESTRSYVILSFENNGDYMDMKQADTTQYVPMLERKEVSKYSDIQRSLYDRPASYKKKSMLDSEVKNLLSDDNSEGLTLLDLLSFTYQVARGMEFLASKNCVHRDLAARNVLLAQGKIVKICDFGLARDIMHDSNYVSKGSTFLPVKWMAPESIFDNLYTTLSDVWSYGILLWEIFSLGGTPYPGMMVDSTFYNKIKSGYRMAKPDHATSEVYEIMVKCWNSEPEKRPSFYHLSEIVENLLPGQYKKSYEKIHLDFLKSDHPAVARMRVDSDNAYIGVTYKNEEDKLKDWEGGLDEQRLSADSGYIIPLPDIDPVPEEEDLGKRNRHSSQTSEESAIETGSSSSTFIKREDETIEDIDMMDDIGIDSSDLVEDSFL
T11 sequence (P00533 25-1210 T790M/L858R): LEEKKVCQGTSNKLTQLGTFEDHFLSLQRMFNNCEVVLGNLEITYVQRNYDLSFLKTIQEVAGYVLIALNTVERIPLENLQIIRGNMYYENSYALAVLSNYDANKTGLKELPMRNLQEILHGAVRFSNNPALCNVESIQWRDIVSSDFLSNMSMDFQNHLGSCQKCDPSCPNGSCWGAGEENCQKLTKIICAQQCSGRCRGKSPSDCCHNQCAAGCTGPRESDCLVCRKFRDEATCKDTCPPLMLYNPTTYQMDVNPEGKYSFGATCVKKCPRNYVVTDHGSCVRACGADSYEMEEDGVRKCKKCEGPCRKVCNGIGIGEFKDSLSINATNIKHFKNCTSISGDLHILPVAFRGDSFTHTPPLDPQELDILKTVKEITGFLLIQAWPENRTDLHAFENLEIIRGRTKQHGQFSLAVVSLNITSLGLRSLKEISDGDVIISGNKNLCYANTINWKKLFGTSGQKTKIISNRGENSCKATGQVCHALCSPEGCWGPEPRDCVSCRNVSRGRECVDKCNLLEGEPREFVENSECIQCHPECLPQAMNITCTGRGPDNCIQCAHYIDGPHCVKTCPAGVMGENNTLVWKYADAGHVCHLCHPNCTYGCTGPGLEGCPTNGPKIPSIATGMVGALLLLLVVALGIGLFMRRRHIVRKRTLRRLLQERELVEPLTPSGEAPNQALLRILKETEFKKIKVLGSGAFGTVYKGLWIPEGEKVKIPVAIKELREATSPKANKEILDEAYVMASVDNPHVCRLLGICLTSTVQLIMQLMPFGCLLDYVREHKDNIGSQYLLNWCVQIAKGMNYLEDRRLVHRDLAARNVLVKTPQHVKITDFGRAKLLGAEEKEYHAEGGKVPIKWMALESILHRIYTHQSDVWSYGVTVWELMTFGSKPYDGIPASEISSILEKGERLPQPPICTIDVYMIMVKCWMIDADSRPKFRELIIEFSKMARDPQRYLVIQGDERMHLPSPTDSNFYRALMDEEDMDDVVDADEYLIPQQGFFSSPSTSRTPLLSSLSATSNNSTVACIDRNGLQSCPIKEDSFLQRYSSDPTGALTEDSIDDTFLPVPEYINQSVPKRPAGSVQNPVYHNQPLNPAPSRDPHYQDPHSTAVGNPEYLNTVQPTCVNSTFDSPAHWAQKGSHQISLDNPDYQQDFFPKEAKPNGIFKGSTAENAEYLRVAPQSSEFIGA

Compound | EC50 (H1975) [nM] | EC50 (A549) [nM] | EC50 (BxPC-3) [nM] | EC50 (HT29) [nM] | EC50 (MDA-MB-231) [nM] | EC50 (HepG2) [nM] | inhibition at 10 µM (ABL) [%] | inhibition at 0.1 µM (PDGFRA (PDGFR alpha)) [%] | inhibition at 0.1 µM (FGFR1) [%] | inhibition at 10 µM (ABL T315I) [%] | inhibition at 0.1 µM (SRC) [%] | inhibition at 0.1 µM (BRAF) [%] | inhibition at 0.1 µM (VEGFR1) [%] | inhibition at 0.1 µM (KDR (VEGFR2)) [%] | inhibition at 0.1 µM (FGFR2) [%] | inhibition at 0.1 µM (EGFR (ErbB1)) [%] | inhibition at 0.1 µM (EGFR (ErbB1) T790M L858R) [%] | inhibition at 0.1 µM (PDGFRB) [%] | EC50 (HeLa) [nM] | EC50 (HUVEC) [nM] | other results
COC(=O)c1cc2cc(NCc3cc(NC(=S)Nc4cccc(C(F)(F)F)c4)ccc3C)cnc2[nH]1 [OR1016] |  | ≥ 1000 |  |  | 100 to 1000 | 100 to 1000 |  |  |  |  |  | < 50 |  | < 50 |  | < 50 |  |  | ≥ 1000 | ≥ 1000 | 
COC(=O)c1cc2cc(NCc3cc(NC(=O)c4cc(N(C)C)cc(C(F)(F)F)c4)ccc3C)cnc2[nH]1 [OR0597] | 100 to 1000 | 100 to 1000 | 100 to 1000 | 100 to 1000 | ≤ 100 | ≤ 100 | ≥ 50 | < 50 | < 50 | ≥ 50 | ≥ 50 | < 50 | < 50 | < 50 | < 50 | < 50 | < 50 | < 50 |  | 100 to 1000 | EC50 (PC-3): ≥ 1000 nM
COC(=O)c1cc2cc(NCc3cccc(NC(=O)c4ccc(CN5CCN(C)CC5)c(C(F)(F)F)c4)c3)cnc2[nH]1 [OR1067] |  | 100 to 1000 |  |  |  | ≥ 1000 |  | ≥ 50 |  |  | ≥ 50 | < 50 |  | ≥ 50 | ≥ 50 | ≥ 50 |  |  | 100 to 1000 | ≤ 100 | 
COC(=O)c1cc2cc(NCc3cc(NC(=S)c4ccc(CN5CCN(C)CC5)c(C(F)(F)F)c4)ccc3C)cnc2[nH]1 [OR0626] |  | ≥ 1000 |  |  | 100 to 1000 | ≥ 1000 |  |  |  |  |  | < 50 |  | < 50 | ≥ 50 | ≥ 50 |  |  | ≥ 1000 | ≥ 1000 | 
COC(=O)c1cc2cc(NCc3cc(NC(=O)Nc4ccncc4)ccc3C)cnc2[nH]1 [OR0952] |  | ≥ 1000 |  |  | ≥ 1000 | ≥ 1000 |  | < 50 |  |  |  | < 50 |  | < 50 | < 50 | < 50 |  |  | ≥ 1000 | ≥ 1000 | 
COC(=O)c1cc2cc(NCc3cc(NC(=O)c4cc(Nc5cc[nH]n5)cc(C(F)(F)F)c4)ccc3C)cnc2[nH]1 [OR0642] | ≥ 1000 | 100 to 1000 | 100 to 1000 | 100 to 1000 | ≤ 100 | ≤ 100 | ≥ 50 | < 50 | < 50 | ≥ 50 | ≥ 50 | < 50 | < 50 | < 50 | < 50 | ≥ 50 | < 50 | < 50 |  | ≤ 100 | EC50 (PC-3): ≥ 1000 nM
COC(=O)c1cc2cc(NC(=O)c3cccc(CNC(=S)c4cccc(C(F)(F)F)c4)c3)cnc2[nH]1 [OR1011] |  | ≥ 1000 |  |  | ≥ 1000 | ≥ 1000 |  | < 50 |  |  |  | < 50 |  | < 50 | < 50 | < 50 |  |  | ≥ 1000 | ≥ 1000 | 

Continued, in another order:

EC50 (H1975) [nM] | EC50 (A549) [nM] | EC50 (BxPC-3) [nM] | EC50 (HT29) [nM] | EC50 (MDA-MB-231) [nM] | EC50 (HepG2) [nM] | inhibition at 10 µM (ABL) [%] | inhibition at 0.1 µM (PDGFRA (PDGFR alpha)) [%] | inhibition at 0.1 µM (FGFR1) [%] | inhibition at 10 µM (ABL T315I) [%] | inhibition at 0.1 µM (SRC) [%] | inhibition at 0.1 µM (BRAF) [%] | inhibition at 0.1 µM (VEGFR1) [%] | inhibition at 0.1 µM (KDR (VEGFR2)) [%] | inhibition at 0.1 µM (FGFR2) [%] | inhibition at 0.1 µM (EGFR (ErbB1)) [%] | inhibition at 0.1 µM (EGFR (ErbB1) T790M L858R) [%] | inhibition at 0.1 µM (PDGFRB) [%] | EC50 (HeLa) [nM] | Compound | EC50 (HUVEC) [nM] | other results
100 to 1000 | 100 to 1000 | 100 to 1000 | 100 to 1000 | ≤ 100 | 100 to 1000 | ≥ 50 | ≥ 50 | < 50 | ≥ 50 | ≥ 50 | < 50 | < 50 | < 50 | < 50 | ≥ 50 | < 50 | < 50 |  | COC(=O)c1cc2cc(NCc3cc(NC(=O)c4cccc(C(C)C)c4)ccc3C)cnc2[nH]1 [OR0610] | ≤ 100 | EC50 (PC-3): ≥ 1000 nM
100 to 1000 | 100 to 1000 | 100 to 1000 | 100 to 1000 |  | 100 to 1000 | ≥ 50 | ≥ 50 | < 50 | < 50 | ≥ 50 | ≥ 50 | < 50 | ≥ 50 | < 50 | < 50 | < 50 | ≥ 50 |  | COC(=O)c1cc2cc(NCc3cc(NC(=O)c4cccc(C)c4)ccc3C)cnc2[nH]1 [OR0607] | ≤ 100 | EC50 (HuCCT1): 100 to 1000 nM
≥ 1000 | ≥ 1000 | ≥ 1000 | ≥ 1000 |  | ≥ 1000 | ≥ 50 | ≥ 50 | < 50 | < 50 | ≥ 50 | ≥ 50 | < 50 | ≥ 50 | < 50 | < 50 | < 50 | ≥ 50 |  | COC(=O)c1cc2cc(NCc3cc(NC(=O)c4ccc5c(c4)OCO5)ccc3C)cnc2[nH]1 [OR0615] | 100 to 1000 | EC50 (HuCCT1): ≥ 1000 nM
100 to 1000 | 100 to 1000 | ≥ 1000 | ≥ 1000 |  | 100 to 1000 | ≥ 50 | ≥ 50 | < 50 | < 50 | ≥ 50 | ≥ 50 | < 50 | < 50 | < 50 | < 50 | < 50 | ≥ 50 |  | COC(=O)c1cc2cc(NCc3cc(NC(=O)Cc4ccccc4Br)ccc3C)cnc2[nH]1 [OR0599] | 100 to 1000 | EC50 (HuCCT1): ≥ 1000 nM
 | ≥ 1000 |  |  | 100 to 1000 | ≥ 1000 |  | ≥ 50 |  |  | ≥ 50 | ≥ 50 |  | < 50 | < 50 | < 50 |  |  | ≥ 1000 | COC(=O)c1cc2cc(NCc3cc(NC(=O)c4ccccc4OC)ccc3C)cnc2[nH]1 [OR1062] | 100 to 1000 | 
